Source: patent US8569267B2, “Tetracyclic tetrahydrofuran derivatives containing cyclic amine side chain” (Janssen Pharmaceutica, NV, priority 2005, dated 2013)
Where two headings read alike, the source gives them in different places.

Tests used:
[1] = molecular target: T1, human Dopamine D2L receptor (Homo sapiens, UniProt P14416); assay: In vitro binding affinity for human D2L receptor ([3H]Spiperone binding)
T1 construct: expressed in transfected cells; host or cells: CHO cells
Method: In Vitro Binding Affinity for Human D2L Receptor
Frozen membranes of human Dopamine D2L receptor-transfected CHO cells were thawed, briefly homogenised using an Ultra-Turrax T25 homogeniser and diluted in Tris-HCl assay buffer containing NaCl, CaCl2, MgCl2, KCl (50, 120, 2, 1, and 5 mM respectively, adjusted to pH 7.7 with HCl) to an appropriate protein concentration optimised for specific and non-specific binding. Radioligand [^3H]Spiperone (NEN, specific activity ˜70 Ci/mmol) was diluted in assay buffer at a concentration of 2 nmol/L. Prepared radioligand (50 μl), along with 50 μl of either the 10% DMSO control, Butaclamol (10^−6 mol/l final concentration), or compound of interest, was then incubated (30 min, 37° C.) with 400 μl of the prepared membrane solution. Membrane-bound activity was filtered through a Packard Filtermate harvester onto GF/B Unifilterplates and washed with ice-cold Tris-HCl buffer (50 mM; pH 7.7; 6×0.5 ml). Filters were allowed to dry before adding scintillation fluid and counting in a Topcount scintillation counter. Percentage specific bound and competition binding curves were calculated using S-Plus software (Insightful).

[2] = molecular target: T2, human cloned 5-HT2C receptor, expressed in CHO cells (Homo sapiens, UniProt P28335); assay: In vitro binding affinity for 5-HT2C receptor ([3H]mesulergine radioligand binding)
T2 construct: expressed in transfected cells; host or cells: CHO cells
T2 sequence (P28335 33-458): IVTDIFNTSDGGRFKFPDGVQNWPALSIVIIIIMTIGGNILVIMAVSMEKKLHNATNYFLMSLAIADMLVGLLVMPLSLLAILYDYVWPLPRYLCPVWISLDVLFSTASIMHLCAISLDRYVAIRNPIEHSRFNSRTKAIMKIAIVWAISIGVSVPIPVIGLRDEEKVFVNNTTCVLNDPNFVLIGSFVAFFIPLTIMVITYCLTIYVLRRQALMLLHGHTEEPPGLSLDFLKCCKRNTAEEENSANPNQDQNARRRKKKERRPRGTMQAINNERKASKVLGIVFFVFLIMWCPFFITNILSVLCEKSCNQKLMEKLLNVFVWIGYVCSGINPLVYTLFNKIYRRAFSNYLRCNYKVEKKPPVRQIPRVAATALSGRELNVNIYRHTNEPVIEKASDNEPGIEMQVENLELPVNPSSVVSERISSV
Method: In Vitro Binding Affinity for 5-HT2A and 5-HT2C Receptors
The interaction of the compounds of Formula (I) with 5-HT2A and 5-HT2C receptors was assessed in in vitro radioligand binding experiments. […] During the incubation, the radioligands bind to the receptor. When equilibrium of binding is reached, the receptor bound radioactivity is separated from the non-bound radioactivity, and the receptor bound activity is counted. The interaction of the test compounds with the receptors is assessed in competition binding experiments. Various concentrations of the test compound are added to the incubation mixture containing the tissue preparation and the radioligand. Binding of the radioligand will be inhibited by the test compound in proportion to its binding affinity and its concentration.

[3] = molecular target: T3, NET (norepinephrine transporter) (Rattus norvegicus, UniProt Q63380); assay: In vitro determination of NET reuptake inhibition ([3H]Nixosetine binding, rat brain cortex)
T3 construct: Cortex from rat brain was collected and homogenised; from tissue; host or cells: rat brain cortex
Method: In Vitro Determination of NET Reuptake Inhibition
Cortex from rat brain was collected and homogenised using an Ultra-Turrax T25 and a Dual homogeniser in ice-cold homogenising buffer containing Tris, NaCl and KCl (50 mM, 120 mM and 5 mM, respectively, pH 7.4) prior to dilution to an appropriate protein concentration optimised for specific and non-specific binding. […] Membrane-bound activity was detected by filtration through a Packard Filtermate harvester onto GF/B Unifilterplates, washed with ice-cold Tris-HCl buffer, containing NaCl and KCl (50 mM, 120 mM and 4 mM; pH 7.4; 6×0.5 ml). Filters were allowed to dry for 24 h before adding scintillation fluid. Scintillation fluid was allowed to saturate filters for 24 h before counting in a Topcount scintillation counter. Percentage specific bound and competition binding curves were calculated using S-Plus software (Insightful).

[4] = human D2L receptor-transfected CHO cell membranes, read-out: D2L pIC50 (converted)
[5] = human cloned 5-HT2C receptor, read-out: 5-HT2C pIC50 (converted)
[6] = rat brain cortex, read-out: NET pIC50 (converted)

T3 sequence (Q63380 1-617): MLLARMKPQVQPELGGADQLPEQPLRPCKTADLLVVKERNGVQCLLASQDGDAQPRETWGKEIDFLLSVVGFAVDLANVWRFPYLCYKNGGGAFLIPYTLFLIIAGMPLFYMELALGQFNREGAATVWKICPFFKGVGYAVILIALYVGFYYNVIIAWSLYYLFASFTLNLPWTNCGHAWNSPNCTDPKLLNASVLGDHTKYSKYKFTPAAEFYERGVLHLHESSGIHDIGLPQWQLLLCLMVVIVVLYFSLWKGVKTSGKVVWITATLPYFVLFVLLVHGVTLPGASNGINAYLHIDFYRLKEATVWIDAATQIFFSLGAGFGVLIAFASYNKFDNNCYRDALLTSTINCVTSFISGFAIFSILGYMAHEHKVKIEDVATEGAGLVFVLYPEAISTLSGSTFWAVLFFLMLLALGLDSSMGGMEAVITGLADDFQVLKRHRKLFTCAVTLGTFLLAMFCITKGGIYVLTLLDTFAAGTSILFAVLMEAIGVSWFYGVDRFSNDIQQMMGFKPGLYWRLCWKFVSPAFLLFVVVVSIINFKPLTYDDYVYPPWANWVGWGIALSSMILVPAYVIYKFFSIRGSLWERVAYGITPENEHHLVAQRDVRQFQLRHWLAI
T1 sequence (P14416 whole entry): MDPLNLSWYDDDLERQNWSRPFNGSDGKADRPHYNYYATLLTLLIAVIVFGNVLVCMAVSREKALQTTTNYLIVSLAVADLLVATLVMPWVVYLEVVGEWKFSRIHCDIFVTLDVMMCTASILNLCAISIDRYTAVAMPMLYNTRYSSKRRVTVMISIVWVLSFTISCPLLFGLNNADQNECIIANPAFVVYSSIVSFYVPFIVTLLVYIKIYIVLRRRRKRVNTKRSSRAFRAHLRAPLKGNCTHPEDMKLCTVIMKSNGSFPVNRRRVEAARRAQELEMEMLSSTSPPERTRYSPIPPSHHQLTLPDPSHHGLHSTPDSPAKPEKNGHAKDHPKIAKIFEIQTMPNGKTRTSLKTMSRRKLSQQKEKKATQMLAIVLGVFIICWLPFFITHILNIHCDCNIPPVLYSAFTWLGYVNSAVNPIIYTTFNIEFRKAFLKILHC

| SMILES | IC50 [1, 4] [nM] | IC50 [2, 5] [nM] | IC50 [3, 6] [nM] | IC50 ([1]; D2L pIC50, human D2L receptor-transfected CHO cell membranes) [nM] | IC50 ([2]; 5-HT2C pIC50, human cloned 5-HT2C receptor) [nM] | IC50 ([3]; NET pIC50, rat brain cortex) [nM] | D2L pIC50 ([1]; human D2L receptor-transfected CHO cell membranes) |
| --- | --- | --- | --- | --- | --- | --- | --- |
| O=C(NC1CCN(CC2CC3c4ccccc4Cc4ccc(F)cc4C3O2)CC1)C1CC1 (stereo not drawn) [Compound 220] | 4.27 | 2.14 | 5370 | – | – | – | – |
| OCCC1CCCN(CC2CC3c4ccccc4Cc4ccc(F)cc4C3O2)C1 (mixture of isomers) [Compound 152] | 17 | 4.17 | 3800 | – | – | – | – |
| O=C(NCc1ccco1)C1CCN(CC2CC3c4ccccc4Cc4ccc(F)cc4C3O2)CC1 (stereo not drawn) [Compound 194] | 5.01 | 1.45 | 9120 | – | – | – | – |
| CCOC(=O)NC1CCN(CC2CC3c4ccccc4Cc4ccc(F)cc4C3O2)CC1 (stereo not drawn) [Compound 211] | 5.89 | 5.75 | > 10000 | – | – | – | – |
| CC1c2ccccc2C2CC(CN3CCC(O)C3)OC2c2cc(F)ccc21 (mixture of isomers) [Compound 46] | 17.4 | 1.1 | 2400 | – | – | – | – |
| CS(=O)(=O)CCCCNC(=S)NC1CCN(CC2CC3c4ccccc4Cc4ccc(F)cc4C3O2)CC1 (stereo not drawn) [Compound 251] | 10.7 | 8.51 | 3630 | – | – | – | – |
| N#CC1(c2ccccc2)CCN(C(=O)C2CCN(CC3CC4c5ccccc5Cc5ccc(F)cc5C4O3)CC2)CC1 (stereo not drawn) [Compound 208] | 22.9 | 7.94 | > 10000 | – | – | – | – |
| CCOC(=O)CC1CCN(CC2CC3c4ccccc4Cc4ccc(F)cc4C3O2)CC1 (stereo not drawn) [Compound 164, [2R-(2α, 3aα, 12bβ)][1-(11-fluoro-3,3a,8,12b-tetrahydro-2H-1-oxa-dibenzo[e,h]-azulen-2-ylmethyl)-piperidin-4-yl]-acetic acid ethyl ester.oxalate (1:1)] | 2.88 | 7.59 | 5500 | – | – | – | – |
| OC1CCCN(CC2CC3c4ccccc4Cc4ccc(F)cc4C3O2)C1 (single isomer, unassigned) [Compound 143] | 12.6 | 1.82 | > 10000 | – | – | – | – |
| O=C(NC1CCN(CC2CC3c4ccccc4Cc4ccc(F)cc4C3O2)CC1)c1cccc(C(F)(F)F)c1 (stereo not drawn) [Compound 233] | 14.8 | 30.9 | 5250 | – | – | – | – |
| O=C(Nc1ccccc1Oc1ccccc1)NC1CCN(CC2CC3c4ccccc4Cc4ccc(F)cc4C3O2)CC1 (stereo not drawn) [Compound 250] | 37.2 | 20.4 | 3890 | – | – | – | – |
| O=C(NC1CCN(CC2CC3c4ccccc4Cc4ccc(F)cc4C3O2)CC1)c1ccccc1Br (stereo not drawn) [Compound 226] | 5.37 | 6.61 | 10500 | – | – | – | – |
| Cc1cccc(C(=O)NC2CCN(CC3CC4c5ccccc5Cc5ccc(F)cc5C4O3)CC2)c1 (stereo not drawn) [Compound 225] | 6.03 | 11.2 | 5250 | – | – | – | – |
| O=C(C1CCN(CC2CC3c4ccccc4Cc4ccc(F)cc4C3O2)CC1)N1CC=C(c2ccccc2)CC1 (stereo not drawn) [Compound 207] | 25.7 | 6.76 | 6170 | – | – | – | – |
| O=C(NC1CCN(CC2CC3c4ccccc4Cc4ccc(F)cc4C3O2)CC1)c1ccccc1Cl (stereo not drawn) [Compound 227] | 5.25 | 11.2 | 9120 | – | – | – | – |
| CC(C)c1ccccc1NC(=O)C1CCN(CC2CC3c4ccccc4Cc4ccc(F)cc4C3O2)CC1 (stereo not drawn) [Compound 185] | 15.5 | 10.7 | > 10000 | – | – | – | – |
| O=C(Nc1ccccc1F)C1CCN(CC2CC3c4ccccc4Cc4ccc(F)cc4C3O2)CC1 (stereo not drawn) [Compound 189] | 7.76 | 1.17 | > 10000 | – | – | – | – |
| CC(C)(C)COC(=O)NC1CCN(CC2CC3c4ccccc4Cc4ccc(F)cc4C3O2)CC1 (stereo not drawn) [Compound 215] | 15.8 | – | 7410 | – | – | – | – |
| O=C(NCc1ccccn1)C1CCN(CC2CC3c4ccccc4Cc4ccc(F)cc4C3O2)CC1 (stereo not drawn) [Compound 197] | 4.57 | 1 | 8510 | – | – | – | – |

| SMILES | IC50 [1, 4] [nM] | IC50 [2, 5] [nM] | IC50 [3, 6] [nM] | IC50 ([1]; D2L pIC50, human D2L receptor-transfected CHO cell membranes) [nM] | IC50 ([2]; 5-HT2C pIC50, human cloned 5-HT2C receptor) [nM] | IC50 ([3]; NET pIC50, rat brain cortex) [nM] | D2L pIC50 ([1]; human D2L receptor-transfected CHO cell membranes) |
| --- | --- | --- | --- | --- | --- | --- | --- |
| O=C(NC1CCN(CC2CC3c4ccccc4Cc4ccc(F)cc4C3O2)CC1)c1ccc(-c2ccccc2)cc1 (stereo not drawn) [Compound 237] | 58.9 | 38 | 7940 | – | – | – | – |
| OC1CCCN(CC2CC3c4ccccc4Cc4ccc(F)cc4C3O2)C1 (single isomer, unassigned) [Compound 142] | 14.5 | 3.16 | 2400 | – | – | – | – |
| Cn1cccc1C(=O)NC1CCN(CC2CC3c4ccccc4Cc4ccc(F)cc4C3O2)CC1 (stereo not drawn) [Compound 221] | 7.76 | 11 | 7240 | – | – | – | – |
| COCCOC(=O)NC1CCN(CC2CC3c4ccccc4Cc4ccc(F)cc4C3O2)CC1 (stereo not drawn) [Compound 216] | 10.2 | 6.17 | > 10000 | – | – | – | – |
| OCC1CCN(CC2CC3c4ccccc4Cc4ccc(F)cc4C3O2)CC1 (stereo not drawn) [Compound 151] | 1.35 | 1.23 | > 10000 | – | – | – | – |
| OC1CCN(C[C@H]2C[C@@H]3c4ccccc4Cc4ccc(F)cc4[C@@H]3O2)CC1 [Compound 144, [2R-(2α, 3aα, 12bβ)]1-(11-fluoro-3,3a,8,12b-tetrahydro-2H-1-oxa-dibenzo[e,h]azulen-2-ylmethyl)-piperidin-4-ol.oxalate (1:1)] | 4.79 | 0.692 | > 10000 | – | – | – | – |
| OC1CCCN(CC2CC3c4ccccc4Cc4ccc(F)cc4C3O2)C1 (racemic) [Compound 141] | 16.6 | 1.15 | 4790 | – | – | – | – |
| CCCOC(=O)NC1CCN(CC2CC3c4ccccc4Cc4ccc(F)cc4C3O2)CC1 (stereo not drawn) [Compound 212] | 6.03 | 7.41 | 7080 | – | – | – | – |
| O=C(Nc1ccc2c(c1)CCC2)NC1CCN(CC2CC3c4ccccc4Cc4ccc(F)cc4C3O2)CC1 (stereo not drawn) [Compound 238] | 21.4 | 5.62 | 7760 | – | – | – | – |
| COc1ccc(OC(=O)NC2CCN(CC3CC4c5ccccc5Cc5ccc(F)cc5C4O3)CC2)cc1 (stereo not drawn) [Compound 219] | – | – | – | 3.39 | 3.98 | > 10000 | – |
| CC(C)(C)CC(C)(C)NC(=O)NC1CCN(CC2CC3c4ccccc4Cc4ccc(F)cc4C3O2)CC1 (stereo not drawn) [Compound 245] | 23.4 | 22.9 | 3980 | – | – | – | – |
| O=C(Nc1ccccc1)NC1CCN(CC2CC3c4ccccc4Cc4ccc(F)cc4C3O2)CC1 (stereo not drawn) [Compound 247] | 3.31 | 2.69 | 3550 | – | – | – | – |
| COCCNC(=S)NC1CCN(CC2CC3c4ccccc4Cc4ccc(F)cc4C3O2)CC1 (stereo not drawn) [Compound 252] | 11.5 | 6.61 | 3240 | – | – | – | – |
| O=C(NC1CCN(C[C@H]2C[C@@H]3c4ccccc4Cc4ccc(F)cc4[C@@H]3O2)CC1)OCc1ccccc1Cl [Compound 218] | 10.2 | 5.75 | 5620 | – | – | – | – |
| CN(C)C(=O)NC1CCN(CC2CC3c4ccccc4Cc4ccc(F)cc4C3O2)CC1 (stereo not drawn) [Compound 243] | 6.76 | 3.24 | > 10000 | – | – | – | – |
| CC(C)(C)OC(=O)N1CCN(C(=O)C2CCN(CC3CC4c5ccccc5Cc5ccc(F)cc5C4O3)CC2)CC1 (stereo not drawn) [Compound 206] | 40.7 | 9.33 | 1700 | – | – | – | – |
| O=C(NC1CCN(CC2CC3c4ccccc4Cc4ccc(F)cc4C3O2)CC1)c1cccc(F)c1 (stereo not drawn) [Compound 231] | 1.86 | 10.7 | 8510 | – | – | – | – |
| O=C(O)C(=O)O.OC1CCN(CC2CC3c4ccccc4Oc4ccc(F)cc4C3O2)CC1 (stereo not drawn) [Compound 283] | – | – | – | – | – | – | 6.70 |
